Experiments:
IRAK4 [1] = molecular target: T1, IRAK4 (Homo sapiens (Human), UniProt Q9NWZ3); assay: IRAK4 degradation in OCI-LY10 (DC50); format: cell-based; settings: read-out: IRAK4 Degradation in OCI-LY10, DC50
OCI-LY10 [2] = assay: OCI-LY10 viability, CTG; format: cell-based; settings: Homo sapiens, OCI-Ly10; MYD88 Mutant Lines; read-out: OCI-LY10 Viability, CTG IC50
SU-DHL2 = SU-DHL2 viability, CTG; format: cell-based; settings: Homo sapiens, SU-DHL-2; MYD88 Mutant Lines; read-out: SU-DHL2 Viability, CTG IC50
SU-DHL6 = SU-DHL6 viability, CTG; format: cell-based; settings: Homo sapiens, SU-DHL-6; MYD88 WT Lines; read-out: SU-DHL6 Viability, CTG IC50
U2932 = U2932 viability, CTG; format: cell-based; settings: Homo sapiens, U2932; MYD88 WT Lines; read-out: U2932 Viability, CTG IC50
OCI-LY19 = OCI-LY19 viability, CTG; format: cell-based; settings: Homo sapiens, OCI-LY19; MYD88 WT Lines; read-out: OCI-LY19 Viability, CTG IC50
IRAK4 [3] = molecular target: T1, IRAK4; assay: IRAK4 MSD degradation in OCI-LY10; format: cell-based; settings: MSD
How it was run: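 Remaining IRAK4 quantified by electrochemiluminescent MSD sandwich assay with two anti-IRAK4 antibodies. Compounds were dosed as 8 concentrations in 1:3 steps from a 1 to 10 μM final top on OCI-LY10 cells, incubated 4 to 24 h at 37° C. under 5% CO2. DC50 fitted with a three-parameter logistic curve.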

IRAK4 [4] = molecular target: T1, IRAK4; assay: hPBMC IRAK4 degradation flow assay; format: cell-based; settings: hPBMC monocyte, 20 hr, flow assay; read-out: IRAK4 degradation in hPBMC monocyte at 20 hr: Average external Abs DC50
How it was run: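 Thawed human PBMCs treated with 10-point, 5-fold compound dilutions (0.1% DMSO) at 37° C. for 20 hours or 4 hours. IRAK4 measured by flow MFI in CD14+ monocytes and CD14− lymphocytes, normalized to DMSO and 10 μM 20-hour control; DC50 and max degradation from 4-parameter logistic fit.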

OCI-LY10 [5] = assay: CTG Cell Viability Assay - OCI-LY10; format: cell-based, human; settings: Homo sapiens, OCI-Ly10, 96 h, OCI-LY10, 4 days; read-out: CTG Cell Viability Assay - OCI-LY10: Average external-IC50
How it was run: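 Viability read by CellTiter-Glo luminescence after 4 days at 37° C under 5% CO2 with compound (top 10 μM final, 1:3 steps, 9 doses, DMSO 0.2%). Three-parameter logistic fit gave IC50.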

IL-6 = IL-6 secretion in hPBMC using R848 stimulation; format: cell-based, human; settings: Homo sapiens, 20 h, hPBMC, R848 as stim, t = 20 h
IRAK4 [6] = molecular target: T1, IRAK4; assay: IRAK4 degradation in human whole blood monocyte - flow cytometry; format: cell-based; settings: read-out: IRAK4 degradation in whole blood monocyte-Flow cytometry: Average external Abs IC50
How it was run: (§1)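 Fresh heparinized human whole blood dosed (10-point, 5-fold, 0.1% DMSO) for 20 h or 4 h at 37 °C, then fixed, stained and IRAK4 MFI quantified by flow in CD14+ monocytes and CD14− lymphocytes. DC50 and Dmax via 4-parameter logistic fit normalized to DMSO and 10 μM control.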

IRAK4 [7] = molecular target: T1, IRAK4; assay: IRAK4 degradation in human whole blood lymphocyte - flow cytometry; format: cell-based; settings: read-out: IRAK4 degradation in whole blood lymphocyte-Flow cytometry: Average external Abs IC50
How it was run: as §1

TNFα [8] = assay: Human PBMC LPS TNFα assay; format: cell-based; settings: hPBMC, LPS stimulation, read-out: IRAK4 hPBMC LPS TNF-α inhibition: Average external-IC50
Description: Human PBMC LPS TNFα assay. Frozen PBMCs were thawed into RPMI with 10% FBS/1% penicillin/streptomycin and same day plated into 96 well plates at 200,000 PBMC/[…] media per well. Compound plates were prepared in DMSO with D300 cassette as 8-point dose curves in duplicate, starting dose 2 μM, 5-fold. Compounds are added 200 nL into cells for final 200 μL per well. Compound and cells were incubated at 37° C., 5% CO2 for 20 hours. After twenty hours of pretreatment with the compounds, LPS (01 1 1:B4) (Sigma #L2637) was added at 100 ng/ml final concentration and PBMCs incubated an additional five hours at 37° C., 5% CO2. Following assay completion, PBMC plates were spun down at 2000 rpm for 10 minutes. 100 uL of supernatant was carefully removed and placed into a new 96 well Costar (#3879) plate and stored at −80° C. until further analysis. Meso scale Discovery (MSD) human V-plex assays were used to measure cytokine levels. On day of cytokine analysis, supernatant samples were thawed, diluted with V-plex diluent #2, and directly to MSD plates. Assay was further completed per standard manufacturer's protocol. Cytokine data was normalized to LPS stimulated and unstimulated controls. Prism Graphpad was used to generate IC50 using 4 parameter logistic regression curve, free-fit.

TNFα [9] = assay: Human whole blood LPS TNFα assay; format: cell-based; settings: 20 h pretreatment, LPS 5 h, read-out: IRAK4 human whole blood LPS TNFa inhibition: Average external-IC50
Description: Human Whole blood LPS TNFα assay. Whole blood was collected fresh and plated same day into 96 well plates at 180 μL per well. Compound plates were prepared in DMSO as 8-point dose curves in duplicate, starting dose 2 μM, 5-fold. Compounds are added 20 μL into blood for final 200 μL per well. Compound and cells were incubated at 37° C., 5% CO2 for 20 hours. After twenty hours of pretreatment with the compounds, LPS (01 1 1:B4) (Sigma #L2637) was added at 100 ng/ml final concentration and blood incubated an additional five hours at 37° C., 5% CO2. Following assay completion, whole blood plates were spun down at 2000 rpm for 15 minutes at 4° C. 50 μL of plasma was carefully removed and placed into a new 96 well Costar (#3879) plate and stored at −80° C. until further analysis. Meso scale Discovery (MSD) human V-plex assays were used to measure cytokine levels. On day of cytokine analysis, plasma samples were thawed, diluted with V-plex diluent #2, and directly to MSD plates. Assay was further completed per standard manufacturer's protocol. Cytokine data was normalized to LPS stimulated and unstimulated controls. Prism Graphpad was used to generate IC50 using 4 parameter logistic regression curve, free-fit.

[10] = OCI-LY10, 4 hrs, read-out: IRAK4 MSD degradation in OCI-LY10 at 4 hrs: Average external-Abs DC50

T1 sequence (Q9NWZ3 whole entry): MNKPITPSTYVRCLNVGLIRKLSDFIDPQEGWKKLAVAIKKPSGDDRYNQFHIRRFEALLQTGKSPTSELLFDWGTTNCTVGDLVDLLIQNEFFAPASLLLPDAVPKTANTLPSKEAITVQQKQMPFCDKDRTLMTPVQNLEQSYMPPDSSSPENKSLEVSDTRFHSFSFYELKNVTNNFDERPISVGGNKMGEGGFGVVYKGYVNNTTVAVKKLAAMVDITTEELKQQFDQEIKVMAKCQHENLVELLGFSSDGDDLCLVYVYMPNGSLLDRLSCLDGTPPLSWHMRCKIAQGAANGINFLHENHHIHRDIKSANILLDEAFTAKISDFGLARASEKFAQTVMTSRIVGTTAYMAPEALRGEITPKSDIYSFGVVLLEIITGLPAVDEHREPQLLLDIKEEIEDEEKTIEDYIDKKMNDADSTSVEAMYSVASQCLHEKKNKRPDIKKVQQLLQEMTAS

| SMILES | DC50 (IRAK4 [1]) | IC50 (OCI-LY10 [2]) | IC50 (SU-DHL2) | IC50 (SU-DHL6) | IC50 (U2932) | IC50 (OCI-LY19) | DC50 (IRAK4 [3]; [10]) | DC50 (IRAK4 [4]) | IC50 (OCI-LY10 [5]) | IC50 (IL-6) | DC50 (IRAK4 [3]; OCI-LY10, 24 hrs, read-out: IRAK4 MSD degradation in OCI-LY10 at 24 hrs: Average external-Abs DC50) | IC50 (IRAK4 [6]) | DC50 (IRAK4 [7]) | IC50 (TNFα [8]) | IC50 (TNFα [9]) | DC50 (IRAK4 [6]) |
| --- | --- | --- | --- | --- | --- | --- | --- | --- | --- | --- | --- | --- | --- | --- | --- | --- |
| CN(C[C@H]1CC[C@H](n2cc3cc(NC(=O)c4cccc(C(F)(F)F)n4)c(C(C)(C)O)cc3n2)CC1)C1CCN(Cc2cccc3c2n(C)c(=O)n3C2CCC(=O)NC2=O)CC1 (stereo partly shown) [I-191] | 4 nM | > 10000 nM | > 10000 nM | 5600 nM | > 10000 nM | > 10000 nM | < 10 nM | < 10 nM | > 1000 nM | 1 to 10 nM |  |  |  |  |  |  |
| CC[C@@H]1CC(=O)N[C@@H]1COc1ncc(C#C[C@H]2CC[C@H](CN3CCC(OCCCc4cccc5c4n(C)c(=O)n5C4CCC(=O)NC4=O)CC3)CC2)c2cc(C(N)=O)c(OC)cc12 (stereo partly shown) [I-229] | 26 nM | 3500 nM | > 10000 nM | 4100 nM | > 10000 nM | > 10000 nM | 10 to 100 nM |  | > 1000 nM |  | 10 to 100 nM |  |  |  |  |  |
| CN(CCOCCOCCCc1cccc2c1n(C)c(=O)n2C1CCC(=O)NC1=O)C(=O)[C@H]1CC[C@H](n2cc(NC(=O)c3coc(-c4ccnc(NCC5CC5)c4)n3)c(C(F)F)n2)CC1 (stereo partly shown) [I-32] |  |  |  |  |  |  | < 10 nM |  | 100 to 500 nM |  |  | < 50 nM | 50 to 100 nM | 50 to 100 nM | > 1000 nM |  |
| Cn1c(=O)n(C2CCC(=O)NC2=O)c2cccc(CCCOCCN3CCN(C[C@H]4CC[C@H](n5cc(NC(=O)c6coc(-c7ccnc(NCC8CC8)c7)n6)c(C(F)F)n5)CC4)CC3)c21 (stereo partly shown) [I-58] |  |  |  |  |  |  | < 10 nM |  | 50 to 100 nM |  |  | < 50 nM | 50 to 100 nM | 100 to 500 nM | > 1000 nM |  |
| CN(C[C@@H]1CN(CCCc2ccc3c(c2)n(C)c(=O)n3C2CCC(=O)NC2=O)CCO1)C[C@H]1CC[C@H](n2cc(NC(=O)c3coc(-c4ccnc(NCC5CC5)c4)n3)c(C(F)F)n2)CC1 (stereo partly shown) [I-36] |  |  |  |  |  |  | 10 to 100 nM |  | 500 to 1000 nM |  |  | < 50 nM | < 50 nM | 100 to 500 nM | 100 to 500 nM |  |
| Cn1c(=O)n(C2CCC(=O)NC2=O)c2ccc(CCCCOCCCCNC[C@H]3CC[C@H](n4cc(NC(=O)c5cnn6ccc(N7CCNCC7)nc56)c(C(F)F)n4)CC3)cc21 (stereo partly shown) [I-42] |  |  |  |  |  |  | 10 to 100 nM |  | > 1000 nM |  |  | < 50 nM | < 50 nM | 100 to 500 nM | > 1000 nM |  |
| CN(CCOCCOCCCc1ccc2c(c1)oc(=O)n2C1CCC(=O)NC1=O)C[C@H]1CC[C@H](n2cc(NC(=O)c3coc(-c4ccnc(NCC5CC5)c4)n3)c(C(F)F)n2)CC1 (stereo partly shown) [I-43] |  |  |  |  |  |  | 10 to 100 nM |  | > 1000 nM |  |  |  | 100 to 500 nM | 100 to 500 nM | 100 to 500 nM | 50 to 100 nM |
| Cn1c(=O)n(C2CCC(=O)NC2=O)c2ccc(CCOCCN3CCO[C@@H](CNC[C@H]4CC[C@H](n5cc(NC(=O)c6cnn7ccc(N8CCNCC8)nc67)c(C(F)F)n5)CC4)C3)cc21 (stereo partly shown) [I-41] |  |  |  |  |  |  | < 10 nM |  | > 1000 nM |  |  | < 50 nM | < 50 nM | 100 to 500 nM | 500 to 1000 nM |  |
| CN(C[C@H]1CN(CC#Cc2ccc3c(c2)n(C)c(=O)n3C2CCC(=O)NC2=O)CCO1)C[C@H]1CC[C@H](n2cc(NC(=O)c3coc(-c4ccnc(NCC5CC5)c4)n3)c(C(F)F)n2)CC1 (stereo partly shown) [I-61] |  |  |  |  |  |  | 10 to 100 nM |  | 100 to 500 nM |  |  |  | 100 to 500 nM | 100 to 500 nM | > 1000 nM | 50 to 100 nM |
| Cn1c(=O)n(C2CCC(=O)NC2=O)c2ccc(CCCN3CCO[C@@H](CNC[C@H]4CC[C@H](n5cc(NC(=O)c6coc(-c7ccnc(NCC8CC8)c7)n6)c(C(F)F)n5)CC4)C3)cc21 (stereo partly shown) [I-16] |  |  |  |  |  |  | < 10 nM |  | 100 to 500 nM |  |  | < 50 nM | 50 to 100 nM | 100 to 500 nM | > 1000 nM |  |
| O=C1CCC(N2C[C@H](c3cccc(C#CCN4CCO[C@@H](CNC[C@H]5CC[C@H](n6cc(NC(=O)c7coc(-c8ccnc(NCC9CC9)c8)n7)c(C(F)F)n6)CC5)C4)c3)OC2=O)C(=O)N1 (stereo partly shown) [I-39] |  |  |  |  |  |  | 10 to 100 nM |  | 50 to 100 nM |  |  |  | 100 to 500 nM | 50 to 100 nM | 100 to 500 nM | 50 to 100 nM |
| Cn1c(=O)n(C2CCC(=O)NC2=O)c2ccc(CCCN3CCO[C@H](CNC[C@H]4CC[C@H](n5cc(NC(=O)c6coc(-c7ccnc(NCC8CC8)c7)n6)c(C(F)F)n5)CC4)C3)cc21 (stereo partly shown) [I-35] |  |  |  |  |  |  | 10 to 100 nM |  | < 50 nM |  |  | < 50 nM | 50 to 100 nM | 100 to 500 nM | 500 to 1000 nM |  |
| Cn1c(=O)n(C2CCC(=O)NC2=O)c2ccc(CN3CCN(CCO[C@H]4C[C@H](N(C)C(=O)[C@H]5CC[C@H](n6cc(NC(=O)c7coc(-c8ccnc(NCC9CC9)c8)n7)c(C(F)F)n6)CC5)C4)CC3)cc21 (stereo partly shown) [I-45] |  |  |  |  |  |  | < 10 nM |  | < 50 nM |  |  | < 50 nM | 50 to 100 nM | < 50 nM | 500 to 1000 nM |  |

— US11352350B2, “IRAK degraders and uses thereof” (Kymera Therapeutics, Inc., priority 2018, dated 2022)
